In general, melting point refers to the temperature, or range, at which the solid turns liquid. Turning to `CN(C)CC(=O)N1CCN(Cc2ccc3c(c2)Cc2c(-c4cccs4)n[nH]c2-3)CC1`, the melting point fell in the range of 193 to 197 °C. The result for `CCCCCCCCCCCCOc1cc(N)c(OCCCCCCCCCCCC)cc1N` reads 75 to 76 °C. The result for `CCSC1=C(c2ccc(O)cc2)C(=O)c2cc(O)ccc21` reads 78 to 81 °C; that for `CC(C)(C)NN=C(O)C(=O)c1ccccc1`, 138 to 139 °C; that for `Cn1cncc1COCC(O)c1ccccc1` (stereo not drawn), 102 to 105 °C. The result for `CCCCC1=C(Cl)C(=O)c2ccccc2C1=O` reads 69 to 70 °C. As to `O=C(O)CCCCCC=C(c1ccccc1)c1ccccc1`, the melting point lay within 88 to 89 °C.

With `COc1ccc(Cl)c(NC(=O)Cc2ccc(Cl)cc2)c1`, the melting point was 149 to 151 °C.

The compound `CC(=O)c1ccc(OCc2ccsc2)cc1OC(CCc1ccccc1C#N)C(=O)O` (stereo not drawn) registered a melting point of 132 to 134 °C. As for `NCCc1cccc(Cn2ccc(OCc3ccc(F)cc3F)c(Br)c2=O)c1`, the figure is 70 to 74 °C; as for `COc1ccc(C2(c3cccc(C(Cc4ccccc4)Cc4ccccc4)n3)OCCCO2)cc1OC`, 124 °C.

Consider `COc1cc2cc3c(nc2cc1OC)CCc1ccc(N)cc1-3`, for which the melting point came to 185 °C. Consider `CCc1nn(Cc2ccccn2)c2c(=O)[nH]c(-c3cc(S(C)(=O)=O)ccc3OCC(C)C)nc12`, for which the melting point lay within 223 to 225 °C. As for `NC(=O)COCc1nnc(S)s1`, the figure is 216 to 217 °C. `CC(C)(C)c1cc(CCN2CCN(CCc3ccc(CC(=O)O)cc3)CC2)cc(C(C)(C)C)c1O`: the melting point is 210 to 213 °C. As for `CCc1cccc(C)c1CNc1cc(C(=O)OC)cn2nc(C)nc12`, the figure is 140 °C; as for `CCCCc1c(O)c2nccnc2n(-c2ccccc2)c1=O`, 183 to 185 °C; as for `CN(C)C(=O)CCc1ccc(OCCN(C)c2nc3ccccc3o2)cc1`, 103 to 105 °C. The result for `CC(=O)NCc1ccc2c(C#N)cn(C3CCN(CCc4ccc(F)cc4)CC3)c2c1` reads 130 to 131 °C; that for `NC(c1ccccc1)c1ccc(OCCCOc2ccc(C(N)c3ccccc3)cc2)cc1` (stereo not drawn), 118 to 119 °C; that for `Cc1c(C)c2c(c(C)c1N)CC(C)(C(=O)N1CCc3c([nH]c4ccccc34)C1)O2` (stereo not drawn), 129 to 133 °C. As for `CCOC(=O)c1c(N2CCN(C)CC2)c2cc(F)ccc2n(Cc2ccccc2)c1=O`, the figure is 156 °C. Regarding `COc1cc2c(c(OC)c1)C1=C(CC2)C2=CCC(OC(C)=O)C2(C)CC1` (stereo not drawn), the melting point lay within 122 to 124 °C. The compound `CCOC(=O)C=Cc1ccc(C#CC2(O)CN3CCC2CC3)c(OCC)c1` (stereo not drawn) registered a melting point of 152 to 153 °C. The result for `CC(=O)c1cccc2c1C1(COc3cc4c(cc31)OCCO4)C(=O)N2C` (stereo not drawn) reads 234 to 235 °C; that for `CCC(C)c1ccccc1N1C(=O)CS/C1=N\C(=O)Nc1ccc(-c2ncn(-c3ccc(OC(F)(F)F)cc3)n2)cc1` (stereo not drawn), 169 to 177 °C; that for `N=C(N)c1ccc2cc(OC(=O)CC3CCCCC3)ccc2c1`, 203 to 205 °C. As for `CC(=O)Oc1cc(C)ccc1C1CCN(CCCCNC(=O)c2ccc(-c3ccc(C#N)cc3)cc2)CC1`, the figure is 128 to 130 °C; as for `COC(=O)c1ccc(CCc2ccc(OC)cc2)nc1`, 82 °C. As for `CC(=O)Nc1ccc(-c2ccccc2)cc1[N+](=O)[O-]`, the melting point was 128 to 131 °C. Turning to `NC(=O)c1cc(Cl)c(Cl)cc1C(=O)NCCN1CCC(c2noc3cc(F)ccc23)CC1`, the melting point lay in the range of 132 to 134 °C.

For the compound `Cc1c(N=C2NCCN2)cc(Br)cc1NS(C)(=O)=O`, the melting point was 262 °C. In turn, `CCC1(O)C(=O)OCc2c1cc1n(c2=O)Cc2cc3cc(O)ccc3nc2-1` (stereo not drawn) returned a melting point of 230 to 235 °C. On to `CS(=O)(=O)c1csc(CC(=O)C(=O)c2ccc(F)cc2)c1`, for which the melting point was 174 to 175 °C. With `CC12CCC1(C)C(=O)OC2=O` (stereo not drawn), the melting point was 84 to 86 °C. In turn, `CC(C)Oc1ccc(/C=C(\NC(=O)c2ccc(OCCc3ccc4ccccc4c3)cc2)C(=O)NCCO)cc1` came in with a melting point of 78 to 79 °C.

Regarding `CCCCCCCCCCc1ccc(COc2ccc(-c3ncc(CCCCCCCCC)cn3)cc2)cc1`, the melting point is 105 °C. The result for `CC(C)(C)c1cc(CCC(=O)O)n(Cc2ccc(C(F)(F)F)cc2Cl)n1` reads 128 to 129 °C; that for `Cc1ccc(S(=O)(=O)Sc2cc(C)c(CO)cc2C(C)(C)C)cc1`, 121 to 122 °C. The result for `CCCCCCCCC1C=CC(CCc2ccc(C(=O)O)o2)=C2N=C3CCCCC3=C21` (stereo not drawn) reads 110 to 111 °C; that for `O=C(CCl)c1ccc2c(c1)Cc1cc(C(=O)CCl)ccc1S2`, 175 to 177 °C; that for `CCC(O)c1ccccc1CS(=O)(=O)NC(=O)Nc1nc(OC)cc(OC)n1` (stereo not drawn), 95 to 98 °C. As for `O=C(NC(Cc1c[nH]c2ccccc12)C(=O)OCc1ccc(Cl)cc1)c1ccccc1` (stereo not drawn), the figure is 119 °C.

For `COc1nc2nc(S(=O)(=O)Cl)nn2cc1C`, the melting point was 154 to 157 °C. As for `O=C([C@@H]1CCCN1S(=O)(=O)c1ccc2ccccc2c1)N1C[C@H](c2ccc(Cl)cc2)Sc2ccc3ccccc3c21`, the figure is 204 to 205 °C.

`CC(=O)Nc1nc2c(Oc3cc(-c4ccc(Br)cc4)ncn3)cccc2s1` showed a melting point of 271 to 272 °C.

Regarding `CC(C)(C)OC(=O)N1CCN(Cc2ccccc2)C[C@H]1C(c1ccccc1)c1ccccc1`, the melting point is 108 to 109 °C. As for `CCOC(=O)C(C=O)c1ccc(Cl)cc1` (stereo not drawn), the figure is 50 °C. For the compound `COc1cc(C(=O)CCCC2CCCCC2)c(OC)cc1Cl`, the melting point is 80 to 81 °C. The result for `N#Cc1cnn(-c2ccc(Cl)c(Cl)c2Cl)c1C=CC(=O)O` reads 215 to 219 °C; that for `COC(=O)c1cc(NC(=N)N)c(NC(C)=O)c(Br)c1O`, 238 to 240 °C; that for `CCOC(=O)N1CCc2nnc(NN)cc2C1`, 145 to 147 °C. As for `Nc1cc(N)cc(C(c2c(O)c3c(oc2=O)CCCCCC3)C2CC2)c1` (stereo not drawn), the figure is 87 °C; as for `NC(=O)[C@@H]1[C@H](Nc2c(Br)cnc3[nH]c(-c4ccc(CN5CCOCC5)cc4)nc23)[C@H]2C=C[C@@H]1C2`, 217 to 219 °C. As for `CCOC(=O)c1cnc2c(cnn2CC)c1Cl`, the figure is 55 to 60 °C. `O=C1N(CCN2CCCC2)CCN1c1ccc(-c2nnc(CSCCOc3ccccc3)o2)cc1` showed a melting point of 125 to 129 °C. The result for `Nc1ccc(F)c(-c2cccnc2)c1F` reads 112 to 113 °C; that for `NC(=O)C1CCc2[nH]c3ccc(Cl)c(Cl)c3c2C1` (stereo not drawn), 246 to 247 °C; that for `O=C(O)CCc1ccc(CC(=O)OCc2ccccc2)cc1`, 62 to 64.5 °C. The result for `CC(C)(C)c1cc(SC2CC(=O)N(CCCCCCN3C(=O)CC(Sc4cc(C(C)(C)C)c(O)c(C(C)(C)C)c4)C3=O)C2=O)cc(C(C)(C)C)c1O` (stereo not drawn) reads 69 to 72 °C. As to `CNC(=O)Cc1c(F)cccc1F`, the melting point lay within 163 to 164 °C. The result for `CC(OC(=O)OC1CC(=O)NC1=O)OC(=O)C(C)C` (stereo not drawn) reads 50 to 54 °C; that for `O=C(O)c1ccc(C(=O)O)c2c(C(O)=Nc3ccccc3)ccc(C(=O)O)c12`, above 300 °C; that for `CCCCCCCCCCc1cccc(C(=O)N(O)CCCC(=O)O)c1`, 77 to 79 °C. In turn, `CC(=O)OC1CC2CCC3C(CCC4(C)C(O)C(N5CCCCC5)CC34)C2(C)CC1N1CCOCC1` (stereo not drawn) returned a melting point of 148 to 152 °C. In turn, `CC1(C)CCSc2c(CC#Cc3ccc(O)cc3)cccc21` returned a melting point of 95 °C. The result for `CC(C)(C)c1cc(C(=NNc2ccccc2)c2cccnc2Cl)cc(C(C)(C)C)c1O` reads 181 °C; that for `Nc1nc(NCCc2ccc(Oc3nc(N)n4nc(-c5ccco5)nc4n3)cc2)nc2nc(-c3ccco3)nn12`, 186 to 190 °C; that for `O=C(O)CCCc1cc2nc(Cl)ccc2n1S(=O)(=O)c1c(F)cc(F)cc1F`, 135 to 150 °C. The result for `N#CCCCOc1ccc(C(=O)Nc2ccc(-n3nc(-c4cccnc4)cc3C#N)cc2)cn1` reads 190 to 191 °C. In the case of `CSc1ncncc1C1c2c(F)cccc2CC1(C)C` (stereo not drawn), the melting point is 81 to 82 °C.

For the compound `NS(=O)(=O)c1ccccc1C=C1CCOC1=O`, the melting point is 178 to 180 °C.

With `CN1CCC(c2nn(CO)c3ccccc23)CC1`, the melting point fell in the range of 128 to 130 °C. As for `CC(C)(C)c1cc(CCc2ccccc2NC(=O)NC2CCC(C(C)(C)C)CC2)cc(C(C)(C)C)c1O` (stereo not drawn), the figure is 206 to 208 °C; as for `Cc1nc(-c2ccc(Cl)cc2)[nH]c1C(=O)N[C@H](C)[C@](O)(Cn1cncn1)c1ccc(F)cc1F`, 165 to 166 °C.

`CC(C)(C)OC(=O)N(CC=CCl)c1cc(OCc2ccccc2)c2ncccc2c1I` displayed a melting point of 115 to 135 °C. `CC(Nc1nc(Cl)nc2c1cnn2-c1ccccc1)C(O)c1ccccc1` (stereo not drawn) returned a melting point of 164 to 165 °C. As for `CCCCCC(=O)OCc1cc(O)ncn1`, the figure is 133 to 134 °C; as for `c1ccc2c(c1)N=C(N1CCCCC1)c1cscc1N2`, 157 to 159 °C. Compound `NS(=O)(=O)c1ccc(S(=O)(=O)CCCO)c(C(=O)O)c1` registered a melting point of 170 °C. `COC(=O)c1cc(N)c(NS(C)(=O)=O)c(CO)c1` yielded a melting point of 150 to 155 °C. Compound `Nc1nc(Cn2c(-c3ccc(Oc4cncnc4)cc3)ccc2-c2ccccc2Cl)ccc1OCCO` had a melting point of 78 to 81 °C. The result for `c1cc(-c2cnco2)nc(-c2cnco2)c1` reads 190 to 191 °C; that for `CS(=O)CCCn1cnc(-c2ccc(F)cc2)c1-c1ccncc1` (racemic), 122 to 123 °C. As for `COC(CCCNC(=O)CCCCCCCCC(=O)NCCCC(OC)OC)OC`, the figure is 83.5 to 85.5 °C; as for `CN(C)n1cn[nH]c1=O`, 127 °C; as for `COc1ccc(C)cc1C(CCO)c1cc(C)ccc1OC`, 117 °C. The result for `CN(C)CN(C(=O)c1ccc(Cl)cc1Cl)c1ccc(C(=O)N2Cc3cccn3Cc3ccccc32)cc1` reads 126 to 129 °C.
